Experimental data reported in patent US20230088774A1, “Herbicide Combinations Comprising Glufosinate and Oxadiazon” (BASF SE, priority 2020, published 2023).

Assays:
Settings in all cases: 504 h
[1] = system: Amaranthus tamariscinus (AMATA); assay: Greenhouse post-emergence weed control, common waterhemp; type: in vivo
Source text: (§1) For post-emergence treatments, glufosinate and oxadiazon, which had been suspended in water, were applied using spray nozzles providing fine to coarse droplets.
(§2) The herbicide compounds applied in the examples were used as experimental or commercially available solo or premix formulations which have been diluted with tap water to a suitable concentration. Glufosinate was used as a commercial SL formulation containing 280 g ai/l of glufosinate (Liberty 280 SL, BASF). While the PPO herbicide Ronstar Flo containing 380 g ai/l oxadiazon was used (Ronstar Flo, Bayer) formulation.
(§3) The evaluation for plant injury or damage caused by the chemical compositions was carried out using a scale from 0-100% when compared with the untreated control plants. Here, 0 means no damage and 100 means complete destruction of the plants.
(§4) 22., E=X+Y−(X*Y/100), where
(§5) X=effect in percent using herbicide A at an application rate of a;
(§6) Y=effect in percent using herbicide B at an application rate of b;
(§7) E=expected effect (in %) of A+B at application rates a+b.
(§8) The value E corresponds to the effect (plant damage or injury) which is to be expected if the activity of the individual compounds is just additive. If the observed effect is higher than the value E calculated according to Colby, a synergistic effect is present. […]

[2] = system: Lolium multiflorum (LOLMU); assay: Greenhouse post-emergence weed control, Italian ryegrass; type: in vivo
Source text: as §1, §2, §3, §4, §5, §6, §7, §8

[3] = system: Echinochloa crus-galli (ECHCG); assay: Greenhouse post-emergence weed control, barnyardgrass; type: in vivo
Source text: as §1, §2, §3, §4, §5, §6, §7, §8

[4] = system: Amaranthus Palmerii (AMAPA); assay: Greenhouse post-emergence weed control, Palmer amaranth; type: in vivo, Amaranthus palmeri
Source text: as §1, §2, §3, §4, §5, §6, §7, §8

[5] = post-emergence, read-out: Solo Glufosinate % activity

Compound	inhibition at 327 g/ha [1, 5] [%]	inhibition at 327 g/ha [2, 5] [%]	inhibition at 327 g/ha [3, 5] [%]	inhibition at 327 g/ha [4, 5] [%]	inhibition at 0.8 g/ha ([1]; AMATA, 0.8 g ai/ha post-emergence, 1% (v/v) MSO, 21 DAT, scale 0-100% injury, read-out: Solo Oxadiazon % activity) [%]	inhibition at 0.8 g/ha ([2]; LOLMU, 0.8 g ai/ha post-emergence, 1% (v/v) MSO, 21 DAT, scale 0-100% injury, read-out: Solo Oxadiazon % activity) [%]	inhibition at 0.8 g/ha ([3]; ECHCG, 0.8 g ai/ha post-emergence, 1% (v/v) MSO, 21 DAT, scale 0-100% injury, read-out: Solo Oxadiazon % activity) [%]	inhibition at 0.8 g/ha ([4]; AMAPA, 0.8 g ai/ha post-emergence, 1% (v/v) MSO, 21 DAT, scale 0-100% injury, read-out: Solo Oxadiazon % activity) [%]
CP(=O)(O)CCC(N)C(=O)O (racemic) [Glufosinate, (2RS)-2-amino-4-[hydroxy(methyl)phosphinoyl]butyric acid]	93	33	40	94	–	–	–	–
CC(C)Oc1cc(-n2nc(C(C)(C)C)oc2=O)c(Cl)cc1Cl [Oxadiazon]	–	–	–	–	28	28	30	27
